In this experiment the target is T1, GK (glucokinase, residues 12-465) (Homo sapiens, UniProt P35557).
T1 construct: I.D. No. 1 corresponds to residues 12-465 of glucokinase; made in house; host or cells: DH10b-T1r E. coli
T1 sequence (P35557 with tags, fused parts or gaps isoform P35557-2): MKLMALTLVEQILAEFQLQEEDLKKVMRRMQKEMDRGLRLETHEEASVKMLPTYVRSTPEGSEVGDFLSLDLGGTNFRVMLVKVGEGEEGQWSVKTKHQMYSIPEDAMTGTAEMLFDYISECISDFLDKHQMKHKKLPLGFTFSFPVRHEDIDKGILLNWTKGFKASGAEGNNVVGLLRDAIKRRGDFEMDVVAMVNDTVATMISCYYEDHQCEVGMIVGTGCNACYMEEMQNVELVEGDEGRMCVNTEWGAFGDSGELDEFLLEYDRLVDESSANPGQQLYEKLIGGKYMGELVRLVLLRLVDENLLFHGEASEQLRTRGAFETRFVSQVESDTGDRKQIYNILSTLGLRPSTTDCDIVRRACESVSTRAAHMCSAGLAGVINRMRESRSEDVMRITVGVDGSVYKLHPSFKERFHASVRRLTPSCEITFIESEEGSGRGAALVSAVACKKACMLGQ
The experiment is described as follows: enzymatic glucokinase activity assay (ATP consumption, KinaseGlo luminescence). It counts as biochemical. The conditions noted are these: 5 μM ATP, 5 mM Glucose, reported as bins; for EC50: Kact = concentration that displays 50% of the maximal increase in GK activity, 60 min, room temperature, read-out: pKact. The text has this: The activity of compounds as glucokinase activators may be assayed in vitro, in vivo or in a cell line. Provided below is an enzymatic glucokinase activity assay.
Purified glucokinase may be obtained as follows. […] SEQ.
The expression of recombinant glucokinase protein may be carried out by transformation and growth of DH10b-T1r E. coli cells incorporating the (pFLAG-CTC) plasmid in LB media. Protein expression can be induced in this system by the addition of IPTG to the culture medium.
Recombinant protein may be isolated from cellular extracts by passage over Sepharose Q Fast Flow resin (Pharmacia). This partially purified GK extract may then be further purified by a second passage over Poros HQ10 (Applied Biosystems). The purity of GK may be determined on denaturing SDS-PAGE gel. Purified GK may then be concentrated to a final concentration of 20.0 mg/ml. After flash freezing in liquid nitrogen, the proteins can be stored at −78° C. in a buffer containing 25 mM TRIS-HCl pH 7.6, 50 mM NaCl, and 0.5 mM TCEP.
The activation properties of compounds for GK may be determined using a black 384-well-plate format under the following reaction conditions: 25 mM Hepes pH 7.2, 25 mM NaCl, 10 mM MgCl2, 0.01% Brij35, 1 mM DTT, 5 μM ATP, 5 mM Glucose 2% DMSO. The amount of ATP consumed may be determined quantitatively by addition of equal volume of luciferase reagent (luciferase+beetle luciferin—KinaseGlo Luminescent Kinase Assay kit from Promega). The luminescence intensity may be measured by using the Analyst HT from LJL Biosystems.
The reaction mixture may then be incubated at room temperature for 60 min, and quenched and developed by addition of 10 μL of luciferase reagent. Luminescence intensities of the resulting reaction mixtures may be measured after a 10 min incubation at room temperature. The luminescence intensity may be measured by using the Analyst HT from LJL Biosystems.
pKact and % ACTmax values may be calculated by non-linear curve fitting of the compound concentrations and luminescence intensities to a standard inhibition/activation equation.

The mark [1] stands for this setting: calculated maximal gain in GK enzyme activity at a saturating concentration of the compound, read-out: % ACTmax.

Each structure is given as a SMILES string. Like-named read-outs stand apart in the source and are kept apart here.

Take `O=C(Nc1ncc(F)s1)[C@H](CC1CCCC1)n1cc(S(=O)(=O)C2CC2)cn1` [Compound 36, (S)-3-cyclopentyl-2-(4-(cyclopropylsulfonyl)-1H-pyrazol-1-yl)-N-(5-fluorothiazol-2-yl)propanamide]: the EC50 lay within 1.58 to 3.16 µM. The Emax under setting [1] is at least 111%.

Take `O=C(Nc1ncc(F)s1)C(CC1CCOCC1)n1ncc2c(S(=O)(=O)C3CC3)c(Br)ccc21` (stereo not drawn) [Compound 150, 2-(5-bromo-4-(cyclopropylsulfonyl)-1H-indazol-1-yl)-N-(5-fluorothiazol-2-yl)-3-(tetrahydro-2H-pyran-4-yl)propanamide]: the EC50 lay in the range of 0.398 to 1.26 µM. Moreover, the Emax under setting [1] was at least 111%.

For the compound `COc1ccc2nc(NC(=O)[C@@H](CC3CCOCC3)n3ccc(S(=O)(=O)C4CC4)n3)sc2n1` [Compound 3, (R)-2-(3-(cyclopropylsulfonyl)-1H-pyrazol-1-yl)-N-(5-methoxythiazolo[5,4-b]pyridin-2-yl)-3-(tetrahydro-2H-pyran-4-yl)propanamide], the EC50 was at least 15.8 µM. In addition, the Emax under setting [1] was at most 90%.

`O=C1CC[C@H](C[C@H](C(=O)Nc2ncc(F)s2)n2cc(S(=O)(=O)C3CC3)cn2)C1` [Compound 56, (R)-2-(4-(cyclopropylsulfonyl)-1H-pyrazol-1-yl)-N-(5-fluorothiazol-2-yl)-3-((R)-3-oxocyclopentyl)propanamide]: the EC50 is at least 15.8 µM. Besides, the Emax under setting [1] is at most 90%.

With `O=C(Nc1ncc(Cl)s1)[C@@H](CC1CCCC1)n1cc(S(=O)(=O)C2CC2)cn1` [Compound 38, (R)-N-(5-chlorothiazol-2-yl)-3-cyclopentyl-2-(4-(cyclopropylsulfonyl)-1H-pyrazol-1-yl)propanamide], the EC50 is at least 15.8 µM. In addition, under setting [1], the Emax was at least 111%.

Turning to `O=C(Nc1ncc(Cl)s1)C(CC1CCOCC1)n1cc2cc(S(=O)(=O)C3CC3)ccc2n1` (stereo not drawn) [Compound 51, N-(5-chlorothiazol-2-yl)-2-(5-(cyclopropylsulfonyl)-2H-indazol-2-yl)-3-(tetrahydro-2H-pyran-4-yl)propanamide], the EC50 lay within 0.398 to 1.26 µM. Moreover, the Emax under setting [1] is at least 111%.

Turning to `O=C(Nc1ncc(F)s1)[C@@H](CC1CCOCC1)n1ncc2c(S(=O)(=O)C3CC3)cc(Cl)cc21` [Compound 145, (R)-2-(6-chloro-4-(cyclopropylsulfonyl)-1H-indazol-1-yl)-N-(5-fluorothiazol-2-yl)-3-(tetrahydro-2H-pyran-4-yl)propanamide], the EC50 is 3.98 to 12.6 µM. In addition, under setting [1], the Emax is at most 90%.

In the case of `COc1cc(S(=O)(=O)C2CC2)c2cnn([C@H](CC3CCOCC3)C(=O)Nc3ncc(F)s3)c2c1` [Compound 129, (R)-2-(4-(cyclopropylsulfonyl)-6-methoxy-1H-indazol-1-yl)-N-(5-fluorothiazol-2-yl)-3-(tetrahydro-2H-pyran-4-yl)propanamide], the EC50 was 3.98 to 12.6 µM. Moreover, under setting [1], the Emax was at most 90%.

Take `O=C(Nc1ncc(Cl)s1)C(CC1CCOCC1)n1cc2c(S(=O)(=O)C3CC3)cccc2n1` (stereo not drawn) [Compound 70, N-(5-chlorothiazol-2-yl)-2-(4-(cyclopropylsulfonyl)-2H-indazol-2-yl)-3-(tetrahydro-2H-pyran-4-yl)propanamide]: the EC50 is 1.58 to 3.16 µM. The Emax under setting [1] is 101 to 105%.

As to `COc1ccc2nc(NC(=O)C(CC3CCOCC3)n3cc(S(=O)(=O)C4CC4)cn3)sc2n1` (stereo not drawn) [Compound 24, 2-(4-(cyclopropylsulfonyl)-1H-pyrazol-1-yl)-N-(5-methoxythiazolo[5,4-b]pyridin-2-yl)-3-(tetrahydro-2H-pyran-4-yl)propanamide], the EC50 is at least 15.8 µM. The Emax under setting [1] is at most 90%.

On to `O=C(Nc1ncc(Cl)s1)[C@@H](CC1CCOCC1)n1ncc2cc(S(=O)(=O)C3CC3)ccc21` [Compound 47, (R)-N-(5-chlorothiazol-2-yl)-2-(5-(cyclopropylsulfonyl)-1H-indazol-1-yl)-3-(tetrahydro-2H-pyran-4-yl)propanamide], for which the EC50 lay within 3.98 to 12.6 µM. For the same compound, the Emax under setting [1] is at least 111%.

As to `O=C(Nc1ncc(Cl)s1)C(CC1CCOCC1)n1ncc2c(S(=O)(=O)C3CC3)cccc21` (stereo not drawn) [Compound 59, N-(5-chlorothiazol-2-yl)-2-(4-(cyclopropylsulfonyl)-1H-indazol-1-yl)-3-(tetrahydro-2H-pyran-4-yl)propanamide], the EC50 was at most 0.316 µM. Moreover, under setting [1], the Emax was 106 to 110%.

For the compound `O=C1CCC(CC(C(=O)Nc2ncc(F)s2)n2cc(S(=O)(=O)C3CC3)cn2)C1` (stereo not drawn) [Compound 50, 2-(4-(cyclopropylsulfonyl)-1H-pyrazol-1-yl)-N-(5-fluorothiazol-2-yl)-3-(3-oxocyclopentyl)propanamide], the EC50 is at least 15.8 µM. Further, under setting [1], the Emax is at most 90%.

`CC(C)(C)S(=O)(=O)c1cnn([C@H](CC2CCOCC2)C(=O)Nc2ncc(F)s2)c1` [Compound 52, (R)-2-(4-(tert-butylsulfonyl)-1H-pyrazol-1-yl)-N-(5-fluorothiazol-2-yl)-3-(tetrahydro-2H-pyran-4-yl)propanamide]: the EC50 was at least 15.8 µM. For the same compound, the Emax under setting [1] is 90 to 100%.

For `Cn1ccc(NC(=O)[C@@H](CC2CCOCC2)n2ncc3c(S(=O)(=O)C4CC4)cncc32)n1` [Compound 160, (R)-2-(4-(cyclopropylsulfonyl)-1H-pyrazolo[3,4-c]pyridin-1-yl)-N-(1-methyl-1H-pyrazol-3-yl)-3-(tetrahydro-2H-pyran-4-yl)propanamide], the EC50 was in the range of 3.98 to 12.6 µM. The Emax under setting [1] is 90 to 100%.

Turning to `Cn1ccc(NC(=O)C(CC2CCOCC2)n2ncc3c(S(=O)(=O)C4CC4)cc(F)cc32)n1` (stereo not drawn) [Compound 104, 2-(4-(cyclopropylsulfonyl)-6-fluoro-1H-indazol-1-yl)-N-(1-methyl-1H-pyrazol-3-yl)-3-(tetrahydro-2H-pyran-4-yl)propanamide], the EC50 was in the range of 1.58 to 3.16 µM. Besides, the Emax under setting [1] is 90 to 100%.

As to `O=C(Nc1ncc(F)s1)C(CC1CCOCC1)n1ncc2c(S(=O)(=O)C3CC3)ccnc21` (stereo not drawn) [Compound 127, 2-(4-(cyclopropylsulfonyl)-1H-pyrazolo[3,4-b]pyridin-1-yl)-N-(5-fluorothiazol-2-yl)-3-(tetrahydro-2H-pyran-4-yl)propanamide], the EC50 was at most 0.316 µM. Moreover, under setting [1], the Emax is 101 to 105%.

As to `NC(=O)c1ccc(NC(=O)C(CC2CCOCC2)n2ncc3c(S(=O)(=O)C4CC4)cccc32)nc1` (stereo not drawn) [Compound 14, 6-(2-(4-(cyclopropylsulfonyl)-1H-indazol-1-yl)-3-(tetrahydro-2H-pyran-4-yl)propanamido)nicotinamide], the EC50 was at most 0.316 µM. Besides, the Emax under setting [1] was at least 111%.

On to `O=C1CC[C@H](C[C@H](C(=O)Nc2ncc(F)s2)n2ncc3c(S(=O)(=O)C4CC4)cc(Cl)cc32)C1` [Compound 78, (R)-2-(6-chloro-4-(cyclopropylsulfonyl)-1H-indazol-1-yl)-N-(5-fluorothiazol-2-yl)-3-((R)-3-oxocyclopentyl)propanamide], for which the EC50 was 1.58 to 3.16 µM. For the same compound, the Emax under setting [1] was 90 to 100%.

`O=C(Nc1ncc(F)s1)C(CC1CCOCC1)n1ncc2c(S(=O)(=O)C3CC3)cncc21` (stereo not drawn) [Compound 13, 2-(4-(cyclopropylsulfonyl)-1H-pyrazolo[3,4-c]pyridin-1-yl)-N-(5-fluorothiazol-2-yl)-3-(tetrahydro-2H-pyran-4-yl)propanamide]: the EC50 is at most 0.316 µM. For the same compound, for the setting “read-out: % ACTmax, calculated maximal gain in GK enzyme activity at a saturating concentration of the compound”, the Emax was 106 to 110%.

Consider `O=C(Nc1ncc(F)s1)[C@@H](CC1CCCC1)n1cc(S(=O)(=O)C2CC2)cn1` [Compound 35, (R)-3-cyclopentyl-2-(4-(cyclopropylsulfonyl)-1H-pyrazol-1-yl)-N-(5-fluorothiazol-2-yl)propanamide], for which the EC50 was at least 15.8 µM. In addition, the Emax under setting [1] was at most 90%.

Source of the values: patent US8563730B2, “Pyrazole and fused pyrazole glucokinase activators” (Takeda San Diego, Inc., priority 2008, dated 2013).
